Experimental data from patent USRE49128E1, “Hydroxyl purine compounds and applications thereof” (GUANGDONG RAYNOVENT BIOTECH CO., LTD., priority 2014, dated 2022).

Tests used:
[1] = target: T1, recombinant full-length PDE2A protein (Homo sapiens, UniProt O00408); experiment: Evaluation of PDE2 phosphodiesterase inhibitory activity in vitro (fluorescence polarization, Transcreener AMP2/GMP2); type: biochemical; conditions: IC50 classes; substrate 1 μM cGMP; room temperature one hour
T1 construct: Expression of recombinant full-length PDE2A protein in insect Sf9 cells; GST (N); made in house; host or cells: insect Sf9 cells (baculovirus)
Procedure: Experimental objective: The substituted Alexa Fluor 633 fluorescent dye on the AMP/GMP antibodies was detected by the fluorescence polarization analysis to determine the concentration of AMP/GMP produced in the reaction system, which was used to calculate the IC50 values of the test compounds against PDE2 phosphodiesterase.
The measured buffer solution: 10 mM Tris-HCl, pH 7.5, 5 mM MgCl2, 0.01% Brij 35, 1 mM DTT, and 1% DMSO.
Enzyme: Expression of recombinant full-length PDE2A protein in insect Sf9 cells using N-terminal GST-tag with baculovirus.
Transcreener® AMP^2/GMP^2 antibody, AMP2/GMP2 AlexaFluor 633 fluorescent dye.
The enzyme solution was prepared using freshly prepared buffer solution, and then added to the reaction holes, the DMSO solutions of the test compounds were added by the Echo550 non-contact nanoliter acoustic pipetting system, and then pre-incubated at room temperature for 10 minutes, the reaction was initiated by the addition of the substrate (1 μM cGMP), and then reacted at room temperature for one hour. And then the detection system (Transcreener® AMP^2/GMP^2 antibody, AMP2/GMP2 AlexaFluor 633 fluorescent dye) was added, reacted at room temperature for 90 minutes, the fluorescence polarization was detected using Ex/Em 620/688.
The fluorescence polarization intensity was converted to nM concentration by AMP/GMP standard curve, The relative enzyme activity relative to DMSO blank was calculated, IC50 values and curves were calculated using Prism software packages (GraphPad Software, San Diego Calif., USA).

[2] = Pharmacokinetic evaluation of compounds in SD rats; type: in vivo, Sprague Dawley rats; conditions: single intravenous injection and oral administration; for bioavailability / clearance / AUC / half-life: male, Sprague-Dawley, rat, plasma; for bioavailability: read-out: Bioavailability F; for clearance: read-out: Clearance rate; for AUC: read-out: Concentration integration AUC; for half-life: read-out: Half-life T1/2 (converted)
Procedure: Experimental objective: The pharmacokinetics of test compounds in SD rats.
Sprague Dawley rats (male, 200-300 g, 7-9 weeks old, Shanghai Slack).
The pharmacokinetic characteristics of rodents after intravenous and oral administration of the compounds were tested according to the standard protocol, in the experiment, the candidate compound was formulated into a clear solution, and the rats were given single intravenous injection and oral administration. Intravenous and oral solvents are a certain proportion of hydroxypropyl βcyclodextrin aqueous solution or physiological saline solution. Blood samples within 24 hours were collected, centrifuged (3000 g) for 15 minutes, the supernatant were separated to obtain the plasma samples, the protein was precipitated by adding a 4 times volume of acetonitrile solution that containing the internal standard, centrifuged and the supernatant was then centrifuged after adding equal volume of water, then the supernatant was injected, the plasma concentration was quantitatively analyzed by LC-MS/MS analysis, and pharmacokinetics parameters such as peak concentration, peak time, clearance rate, half-life, drug area under the curve, bioavailability etc. are calculated.

T1 sequence (O00408 whole entry, species assumed): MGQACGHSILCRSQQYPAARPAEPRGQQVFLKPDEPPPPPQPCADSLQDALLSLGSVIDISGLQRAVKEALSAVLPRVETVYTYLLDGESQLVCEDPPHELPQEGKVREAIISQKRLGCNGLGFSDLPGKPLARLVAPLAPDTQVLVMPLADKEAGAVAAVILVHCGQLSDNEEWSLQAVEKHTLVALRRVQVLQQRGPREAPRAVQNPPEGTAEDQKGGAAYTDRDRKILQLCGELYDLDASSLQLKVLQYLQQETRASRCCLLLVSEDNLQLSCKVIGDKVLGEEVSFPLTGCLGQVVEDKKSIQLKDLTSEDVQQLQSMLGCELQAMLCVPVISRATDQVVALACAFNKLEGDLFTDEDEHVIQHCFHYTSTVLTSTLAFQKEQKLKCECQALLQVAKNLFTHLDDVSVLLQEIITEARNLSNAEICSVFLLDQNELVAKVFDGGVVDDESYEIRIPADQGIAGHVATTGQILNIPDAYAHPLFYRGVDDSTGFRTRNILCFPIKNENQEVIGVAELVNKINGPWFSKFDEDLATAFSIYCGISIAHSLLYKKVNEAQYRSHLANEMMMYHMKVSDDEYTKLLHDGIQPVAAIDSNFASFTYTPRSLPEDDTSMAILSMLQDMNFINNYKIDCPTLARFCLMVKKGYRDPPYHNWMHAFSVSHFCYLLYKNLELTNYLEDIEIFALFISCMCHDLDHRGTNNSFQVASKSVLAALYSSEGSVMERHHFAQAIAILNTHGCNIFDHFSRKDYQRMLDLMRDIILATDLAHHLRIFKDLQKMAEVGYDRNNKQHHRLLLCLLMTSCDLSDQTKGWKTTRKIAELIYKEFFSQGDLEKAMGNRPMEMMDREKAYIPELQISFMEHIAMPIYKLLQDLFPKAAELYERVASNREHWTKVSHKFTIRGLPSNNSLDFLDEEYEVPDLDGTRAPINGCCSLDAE

3,7-Dimethyl-1-[[3-[2,2,2-trifluoro-1-hydroxy-1-(trifluoromethyl)ethyl]cyclobutyl]methyl]purine-2,6-dione [Embodiment 8 isomer 1]
IC50 [1]: 1 to 10 µM

3,7-Dimethyl-1-[[3-[2,2,2-trifluoro-1-hydroxy-1-(trifluoromethyl)ethyl]cyclobutyl]methyl]purine-2,6-dione [Embodiment 8 isomer 2]
IC50 [1]: 10 to 50 µM

Cn1cnc2c1c(=O)n(CC1CC(C(C)(O)C(F)(F)F)C1)c(=O)n2C (single isomer, unassigned) [Embodiment 9 isomer 1]
IC50 [1]: 10 to 50 µM

Cn1cnc2c1c(=O)n(CC1CCC(O)(C(F)(F)F)CC1)c(=O)n2C (single isomer, unassigned) [Embodiment 12 isomer 2]
IC50 [1]: 1 to 10 µM | bioavailability [2]: 34.1% | clearance [2]: 41 mL/min/kg | AUC [2]: 3.85 µM·h | half-life [2]: 1.6 h

Cn1cnc2c1c(=O)n(CCC1CCC(O)(C(F)(F)F)CC1)c(=O)n2C (single isomer, unassigned) [Embodiment 15 isomer 1]
IC50 [1]: 1 to 10 µM

Cn1c(=O)n(CC2CCC(C)(O)CC2)c(=O)c2c1ncn2CC(F)(F)F (single isomer, unassigned) [Embodiment 46 isomer 2]
IC50 [1]: 10 to 50 µM

Cn1c(=O)n(CC2CCC(O)(C(F)(F)F)CC2)c(=O)c2c1ncn2CC1CC1 (single isomer, unassigned) [Embodiment 50 isomer 1, 7-(Cyclopropylmethyl)-1-((4-hydroxy-4-(trifluoromethyl)cyclohexyl)methyl)-3-methyl-1H-purine-2,6(3H,7H)-dione]
IC50 [1]: 10 to 50 µM

Cn1c(=O)n(CC2CCC(C)(O)CC2)c(=O)c2c1ncn2CC1CC1 (single isomer, unassigned) [Embodiment 51 isomer 1]
IC50 [1]: 10 to 50 µM

CC(C)Cn1cnc2c1c(=O)n(CC1CCC(O)(C(F)(F)F)CC1)c(=O)n2C (single isomer, unassigned) [Embodiment 58 isomer 2, 1-((4-Hydroxy-4-(trifluoromethyl)cyclohexyl)methyl)-7-isobutyl-3-methyl-1H-purine-2,6(3H,7H)-dione]
bioavailability [2]: 42.6% | clearance [2]: 71.6 mL/min/kg | AUC [2]: 2.49 µM·h | half-life [2]: 0.56 h

Cn1cnc2c1c(=O)n(CCCCC1(O)CC1)c(=O)n2C [Embodiment 3, 1-(4-(1-Hydroxycyclopropyl)butyl)-3,7-dimethyl-1H-purine-2,6(3H,7H)-dione]
IC50 [1]: 10 to 50 µM

Cn1cnc2c1c(=O)n(CC1(C(C)(O)C(F)(F)F)CC1)c(=O)n2C (centres unmarked) [Embodiment 4, 3,7-Dimethyl-1-((1-(1,1,1-trifluoro-2-hydroxypropan-2-yl)cyclopropyl)methyl)-1H-purine-2,6-(3H,7H)-dione]
IC50 [1]: 1 to 10 µM

Cn1cnc2c1c(=O)n(CC1CC(O)(C(F)(F)F)C1)c(=O)n2C (centres unmarked) [Embodiment 5]
IC50 [1]: 10 to 50 µM

Cn1cnc2c1c(=O)n(C[C@H]1CC[C@](O)(C(F)(F)F)CC1)c(=O)n2C [Embodiment 12, 1-(((1S,4S)-4-Hydroxy-4-(trifluoromethyl)cyclohexyl)methyl)-3,7-dimethyl-1H-purine-2,6(3H,7H)-dione]
Bioavailability F [2]: 41.2% | Clearance rate [2]: 32.7 mL/min/kg | Concentration integration AUC [2]: 5.863 µM·h | Half-life T1/2 [2]: 3.12 h

CCC(O)(CC)C1CCC(Cn2c(=O)c3c(ncn3C)n(C)c2=O)CC1 (centres unmarked) [Embodiment 18, 1-((4-(3-Hydroxypentan-3-yl)-cyclohexyl)methyl)-3,7-dimethyl-1H-purine-2,6(3H,7H)-dione]
IC50 [1]: 1 to 10 µM

Cn1cnc2c1c(=O)n(C[C@H]1CC[C@H](C(C)(O)C(F)(F)F)CC1)c(=O)n2C (stereo partly drawn) [Embodiment 19, 3,7-Dimethyl-1-[[trans-4-(2,2,2-trifluoro-1-hydroxy-1-methyl-ethyl)cyclohexyl]methyl]purine-2,6-dione]
IC50 [1]: 10 to 50 µM

Cn1cnc2c1c(=O)n(C[C@H]1CC[C@H](C(O)(C(F)(F)F)C(F)(F)F)CC1)c(=O)n2C [Embodiment 20, 3,7-Dimethyl-1-[trans-4-(2,2,2-trifluoro-1-hydroxy-1-trifluoromethyl-ethyl)cyclohexylmethyl]-3,7-dihydro-purine-2,6-dione]
IC50 [1]: 10 to 50 µM

Cn1cnc2c1c(=O)n(C[C@H]1CC[C@H](C3(O)CC3)CC1)c(=O)n2C [Embodiment 21, 1-[[trans-4-(1-hydroxycyclopropyl)cyclohexyl]methyl]-3,7-dimethylpurine-2,6-dione]
IC50 [1]: 10 to 50 µM

CCC1(O)CCCC(CCn2c(=O)c3c(ncn3C)n(C)c2=O)C1 (centres unmarked) [Embodiment 22, 1-(2-(3-Ethyl-3-hydroxycyclohexyl)ethyl)-3,7-dimethyl-1H-purine-2,6(3H,7H)-dione]
IC50 [1]: 1 to 10 µM

CCC(O)(CC)c1ccc(Cn2c(=O)c3c(ncn3C)n(C)c2=O)cc1 [Embodiment 25, 1-(4-(3-Hydroxypentan-3-yl)benzyl)-3,7-dimethyl-1H-purine-2,6(3H,7H)-dione]
IC50 [1]: 1 to 10 µM

Cn1cnc2c1c(=O)n(Cc1cccc(C(C)(O)C(F)(F)F)c1)c(=O)n2C (centres unmarked) [Embodiment 26, 3,7-dimethyl-1-(3-(1,1,1-trifluoro-2-hydroxypropan-2-yl)benzyl)-1H-purine-2,6-(3H,7H)-dione]
IC50 [1]: 10 to 50 µM

Cn1cnc2c1c(=O)n(Cc1cc(C(O)(C(F)(F)F)C(F)(F)F)no1)c(=O)n2C [Embodiment 31]
IC50 [1]: 10 to 50 µM

Cn1cnc2c1c(=O)n(Cc1csc(C(C)(O)C(F)(F)F)n1)c(=O)n2C (centres unmarked) [Embodiment 33, 3,7-Dimethyl-1-((2-(1,1,1-trifluoro-2-hydroxypropan-2-yl)thiazol-4-yl)methyl)-1H-purine-2,6-(3H,7H)-dione]
IC50 [1]: 10 to 50 µM

Cc1sc(C(C)(O)C(F)(F)F)nc1Cn1c(=O)c2c(ncn2C)n(C)c1=O (centres unmarked) [Embodiment 34]
IC50 [1]: 10 to 50 µM

Cn1cnc2c1c(=O)n(Cc1cnc(C(C)(O)C(F)(F)F)s1)c(=O)n2C (centres unmarked) [Embodiment 35, 3,7-Dimethyl-1-((2-(1,1,1-trifluoro-2-hydroxypropan-2-yl)thiazol-5-yl)methyl)-1H-purine-2,6-(3H,7H)-dione]
IC50 [1]: 10 to 50 µM

Cc1nc(C(C)(O)C(F)(F)F)sc1CCn1c(=O)c2c(ncn2C)n(C)c1=O (centres unmarked) [Embodiment 36, 3,7-Dimethyl-1-(2-(4-methyl-2-(1,1,1-trifluoro-2-hydroxypropan-2-yl)thiazol-5-yl)ethyl)-1H-purine-2,6-(3H,7H)-dione]
IC50 [1]: 10 to 50 µM

CCn1cnc2c1c(=O)n(CCCCC(O)(CC)CC)c(=O)n2C [Embodiment 42, 7-Ethyl-1-(5-ethyl-5-hydroxyheptyl)-3-methyl-1H-purine-2,6(3H,7H)-dione]
IC50 [1]: 1 to 10 µM

CCn1cnc2c1c(=O)n(CCCCC(C)(O)C(F)(F)F)c(=O)n2C (centres unmarked) [Embodiment 43, 7-Ethyl-3-methyl-1-(6,6,6-trifluoro-5-hydroxy-5-methylhexyl)-1H-purine-2,6(3H,7H)-dione]
IC50 [1]: 10 to 50 µM

Cn1c(=O)n(CCCCC(C)(O)C(F)(F)F)c(=O)c2c1ncn2C1CC1 (centres unmarked) [Embodiment 47, 7-Cyclopropyl-3-methyl-1-(6,6,6-trifluoro-5-hydroxy-5-methylhexyl)-1H-purine-2,6(3H,7H)-dione]
IC50 [1]: 10 to 50 µM

CC(C)n1cnc2c1c(=O)n(CC1CCC(O)(C(F)(F)F)CC1)c(=O)n2C (centres unmarked) [Embodiment 48]
IC50 [1]: 10 to 50 µM

COCC1(Cn2c(=O)c3c(ncn3CC3CC3)n(C)c2=O)CCC(O)(C(F)(F)F)CC1 (centres unmarked) [Embodiment 52]
IC50 [1]: 10 to 50 µM

Cn1c(=O)n(CC2(C)CCC(O)(C(F)(F)F)CC2)c(=O)c2c1ncn2CC1CC1 (centres unmarked) [Embodiment 53]
IC50 [1]: 10 to 50 µM

Cc1sc(C(C)(O)C(F)(F)F)nc1Cn1c(=O)c2c(ncn2CC2CC2)n(C)c1=O (centres unmarked) [Embodiment 54, 7-(Cyclopropylmethyl)-3-methyl-1-((5-methyl-2-(1,1,1-trifluoro-2-hydroxypropan-2-yl)thiazol-4-yl)methyl)-1H-purine-2,6-(3H,7H)-dione]
IC50 [1]: 1 to 10 µM

Cn1c(=O)n(Cc2ccc(C(C)(O)C(F)(F)F)cn2)c(=O)c2c1ncn2CC1CC1 (centres unmarked) [Embodiment 56]
IC50 [1]: 10 to 50 µM

CC(C)Cn1cnc2c1c(=O)n(CC1CCC(O)(C(F)(F)F)CC1)c(=O)n2C (centres unmarked) [Embodiment 57, 1-((4-Hydroxy-4-(trifluoromethyl)cyclohexyl)methyl)-7-isobutyl-3-methyl-1H-purine-2,6(3H,7H)-dione]
IC50 [1]: 1 to 10 µM
